Consider three compounds from paper PMC7114321 (Antiviral Research, 2005).

The subject of one data set is Sindbis virus. Particulars: cited from earlier work.
The nature of the next data set: in vitro. Particulars: African green monkey, CC50 of cell death.

Each structure is given as a SMILES string. Converted amounts (≈) assume the structure as drawn.

The CC50 is the concentration that lowers cell viability or growth by half. `C=CCC(=NOS(=O)(=O)O)S[C@@H]1O[C@H](CO)[C@@H](O)[C@H](O)[C@H]1O` (stereo in doubt) [Sinigrin]: in the data set on Vero cells, the 50% cytotoxic concentration (CC50) is > 10000 µM and the “CC50 of cell death” value is >5000 (>10,000 μM) μg/ml.
In general, IC50 refers to the midpoint of a concentration-inhibition curve. As to `COc1ccc([C@@H]2CC(=O)c3c(O)cc(O)cc3O2)cc1O` [Hesperetin], the “IC50, inhibitory activity on Sindbis virus infection” value in the data set with Sindbis virus is 20.5 µg/mL (≈ 0.0678 mM). For the same compound, the IC50 with Sindbis virus (read-out: IC50, inhibitory activity on Sindbis virus infection) is ~68 µM.
Turning to `O=C1/C(=C2\Nc3ccccc3C2=O)Nc2ccccc21` [Indigo], it took 917 µg/mL (≈ 3.5 mM) to reach half-maximal cytotoxicity in “in vitro” (CC50).
